Measured values from patent US9708314B2, “Heterocyclic amide compound” (NISSAN CHEMICAL INDUSTRIES, LTD., priority 2013, dated 2017).

Key:
Format in all cases: in vivo
[1] = test system: Beta vulgaris ssp. vulgaris; assay: Test Example 4: effect on crop by application to foliage (diluvial soil, plastic box); conditions: for f (Beta vulgaris ssp. vulgaris) effect on crop grade: foliage application, 320 g/ha
Procedure, shortened: (§1)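 Read-out is a 0–5 visual grade of herbicidal ratio (5: ≥90%, almost withered; 0: ≤5%) taken three weeks after treatment. Compound was applied as a diluted emulsion to stem and leaf parts of 14-day greenhouse-grown plants (25° C. to 30° C.) at rates expressed as g/ha.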

Zea mays = assay: as above; conditions: for b (Zea mays) effect on crop grade: foliage application, 320 g/ha
Procedure, shortened: as §1

Brassica campestris L. = assay: as above; conditions: for g (Brassica campestris L.) effect on crop grade: foliage application, 320 g/ha
Procedure, shortened: as §1

Glycine max = assay: as above; conditions: for c (Glycine max) effect on crop grade: foliage application, 320 g/ha
Procedure, shortened: as §1

[2] = test system: directly sowed Oryza sativa; assay: as above; conditions: for d (directly sowed Oryza sativa) effect on crop grade: foliage application, 320 g/ha
Procedure, shortened: as §1

Triticum aestivum = assay: as above; conditions: for e (Triticum aestivum) effect on crop grade: foliage application, 320 g/ha
Procedure, shortened: as §1

Monochoria vaginalis = assay: Test Example 1: herbicidal activity, application before weed generation in submerged conditions; conditions: Application herbicide amount 320 g/ha; Seventeenth Table
Procedure, shortened: (§2)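 Submerged pot test: alluvial soil, 4 cm water, seeds sown mixed, 2.5-leaf rice transplanted; emulsion in water applied to surface day of sowing, dose g/ha; greenhouse 25–30° C.; 3 wk; 0–5 rating.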

[3] = test system: Echinochloa oryzacola Vasing.; assay: as above; conditions: Application herbicide amount 320 g/ha; Seventeenth Table
Procedure, shortened: as §2

[4] = test system: Echinochloa crus-galli var. crus-galli; assay: Test Example 4: herbicidal effect by application to foliage (diluvial soil, plastic box); conditions: for H (Echinochloa crus-galli var. crus-galli) herbicidal effect grade: foliage application, 320 g/ha
Procedure, shortened: as §1

Lolium multiflorum Lam. = assay: as above; conditions: for K (Lolium multiflorum Lam.) herbicidal effect grade: foliage application, 320 g/ha
Procedure, shortened: as §1

Avena fatua = assay: as above; conditions: for I (Avena fatua) herbicidal effect grade: foliage application, 320 g/ha
Procedure, shortened: as §1

Chenopodium album = assay: as above; conditions: for O (Chenopodium album) herbicidal effect grade: foliage application, 320 g/ha
Procedure, shortened: as §1

Setaria viridis = assay: as above; conditions: for G (Setaria viridis) herbicidal effect grade: foliage application, 320 g/ha
Procedure, shortened: as §1

Abutilon theophrasti = assay: as above; conditions: for M (Abutilon theophrasti) herbicidal effect grade: foliage application, 320 g/ha
Procedure, shortened: as §1

Amaranthus retroflexus = assay: as above; conditions: for N (Amaranthus retroflexus) herbicidal effect grade: foliage application, 320 g/ha
Procedure, shortened: as §1

Alopecurus myosuroides = assay: as above; conditions: for J (Alopecurus myosuroides) herbicidal effect grade: foliage application, 320 g/ha
Procedure, shortened: as §1

Galium spurium = assay: as above; conditions: for Q (Galium spurium) herbicidal effect grade: foliage application, 320 g/ha
Procedure, shortened: as §1

Digitaria ciliaris = assay: as above; conditions: for F (Digitaria ciliaris) herbicidal effect grade: foliage application, 320 g/ha
Procedure, shortened: as §1

Stellaria media = assay: as above; conditions: for P (Stellaria media) herbicidal effect grade: foliage application, 320 g/ha
Procedure, shortened: as §1

Apera spica-venti. = assay: as above; conditions: for L (Apera spica-venti.) herbicidal effect grade: foliage application, 320 g/ha
Procedure, shortened: as §1

Veronica persica = assay: as above; conditions: for R (Veronica persica) herbicidal effect grade: foliage application, 320 g/ha
Procedure, shortened: as §1

Scirpus juncoides = assay: Test Example 1: herbicidal activity, application before weed generation in submerged conditions; conditions: Application herbicide amount 320 g/ha; Seventeenth Table
Procedure, shortened: as §2

[5] = application to foliage, application herbicide amount 320 g/ha

Compound	f (Beta vulgaris ssp. vulgaris) effect on crop grade [1]	b (Zea mays) effect on crop grade (Zea mays)	g (Brassica campestris L.) effect on crop grade (Brassica campestris L.)	c (Glycine max) effect on crop grade (Glycine max)	d (directly sowed Oryza sativa) effect on crop grade [2]	e (Triticum aestivum) effect on crop grade (Triticum aestivum)	C: Monochoria vaginalis (herbicidal effect grade) (Monochoria vaginalis)	A: Echinochloa oryzicola Vasing. (herbicidal effect grade) [3]	H (Echinochloa crus-galli var. crus-galli) herbicidal effect grade [4]	K (Lolium multiflorum Lam.) herbicidal effect grade (Lolium multiflorum Lam.)	I (Avena fatua) herbicidal effect grade (Avena fatua)	O (Chenopodium album) herbicidal effect grade (Chenopodium album)	G (Setaria viridis) herbicidal effect grade (Setaria viridis)	M (Abutilon theophrasti) herbicidal effect grade (Abutilon theophrasti)	N (Amaranthus retroflexus) herbicidal effect grade (Amaranthus retroflexus)	J (Alopecurus myosuroides) herbicidal effect grade (Alopecurus myosuroides)	Q (Galium spurium) herbicidal effect grade (Galium spurium)	F (Digitaria ciliaris) herbicidal effect grade (Digitaria ciliaris)	P (Stellaria media) herbicidal effect grade (Stellaria media)	L (Apera spica-venti.) herbicidal effect grade (Apera spica-venti.)	also measured
Cn1nnnc1NC(=O)c1ccc(C(F)(F)F)n2c(-c3cc(Cl)cc(Cl)c3)nnc12 [2-064]	4 (Herbicidal ratio of 70% or more and less than 90%)	0 (Herbicidal ratio of 5% or less (almost no effect))	3 (Herbicidal ratio of 40% or more and less than 70%)	0 (Herbicidal ratio of 5% or less (almost no effect))	3 (Herbicidal ratio of 40% or more and less than 70%)	0 (Herbicidal ratio of 5% or less (almost no effect))	2 (Herbicidal ratio of 20% or more and less than 40%)	5 (Herbicidal ratio of 90% or more (almost completely withered))	3 (Herbicidal ratio of 40% or more and less than 70%)	0 (Herbicidal ratio of 5% or less (almost no effect))	0 (Herbicidal ratio of 5% or less (almost no effect))	5 (Herbicidal ratio of 90% or more (almost completely withered))	2 (Herbicidal ratio of 20% or more and less than 40%)	5 (Herbicidal ratio of 90% or more (almost completely withered))	5 (Herbicidal ratio of 90% or more (almost completely withered))	0 (Herbicidal ratio of 5% or less (almost no effect))	1 (Herbicidal ratio of 5% or more and less than 20%)	3 (Herbicidal ratio of 40% or more and less than 70%)	5 (Herbicidal ratio of 90% or more (almost completely withered))	0 (Herbicidal ratio of 5% or less (almost no effect))	R (Veronica persica) herbicidal effect grade (Veronica persica): 5 (Herbicidal ratio of 90% or more (almost completely withered))
Cc1nnc(NC(=O)c2ccc(C(F)(F)F)n3c(SC4CCCC4)nnc23)o1 [1-154]							2 (Herbicidal ratio of 20% or more and less than 40%)														f: effect on crop, Beta vulgaris ssp. vulgaris [1, 5]: 4 (Herbicidal ratio of 70% or more and less than 90%); c: effect on crop, Zea mays (Zea mays; [5]): 0 (Herbicidal ratio of 5% or less (almost no effect)); g: effect on crop, Brassica campestris L. (Brassica campestris L.; [5]): 0 (Herbicidal ratio of 5% or less (almost no effect)); d: effect on crop, Glycine max (Glycine max; [5]): 2 (Herbicidal ratio of 20% or more and less than 40%); b: effect on crop, directly sowed Oryza sativa [2, 5]: 0 (Herbicidal ratio of 5% or less (almost no effect)); e: effect on crop, Triticum aestivum (Triticum aestivum; [5]): 0 (Herbicidal ratio of 5% or less (almost no effect)); B: Scirpus juncoides (herbicidal effect grade) (Scirpus juncoides): 3 (Herbicidal ratio of 40% or more and less than 70%); H: herbicidal effect on Echinochloa crus-galli var. crus-galli [4, 5]: 3 (Herbicidal ratio of 40% or more and less than 70%); K: herbicidal effect on Lolium multiflorum Lam. (Lolium multiflorum Lam.; [5]): 0 (Herbicidal ratio of 5% or less (almost no effect)); I: herbicidal effect on Avena fatua (Avena fatua; [5]): 0 (Herbicidal ratio of 5% or less (almost no effect)); O: herbicidal effect on Chenopodium album (Chenopodium album; [5]): 5 (Herbicidal ratio of 90% or more (almost completely withered)); G: herbicidal effect on Setaria viridis (Setaria viridis; [5]): 2 (Herbicidal ratio of 20% or more and less than 40%); M: herbicidal effect on Abutilon theophrasti (Abutilon theophrasti; [5]): 2 (Herbicidal ratio of 20% or more and less than 40%); N: herbicidal effect on Amaranthus retroflexus (Amaranthus retroflexus; [5]): 2 (Herbicidal ratio of 20% or more and less than 40%); J: herbicidal effect on Alopecurus myosuroides (Alopecurus myosuroides; [5]): 0 (Herbicidal ratio of 5% or less (almost no effect)); Q: herbicidal effect on Galium spurium (Galium spurium; [5]): 0 (Herbicidal ratio of 5% or less (almost no effect)); F: herbicidal effect on Digitaria ciliaris (Digitaria ciliaris; [5]): 3 (Herbicidal ratio of 40% or more and less than 70%); P: herbicidal effect on Stellaria media (Stellaria media; [5]): 4 (Herbicidal ratio of 70% or more and less than 90%); L: herbicidal effect on Apera spica-venti. (Apera spica-venti.; [5]): 0 (Herbicidal ratio of 5% or less (almost no effect)); R: herbicidal effect on Veronica persica (Veronica persica; [5]): 0 (Herbicidal ratio of 5% or less (almost no effect))
COc1cc(OC)cc(-c2nnc3c(C(=O)Nc4nnnn4C)ccc(C(F)(F)F)n23)c1 [2-063]	5 (Herbicidal ratio of 90% or more (almost completely withered))	4 (Herbicidal ratio of 70% or more and less than 90%)	4 (Herbicidal ratio of 70% or more and less than 90%)	3 (Herbicidal ratio of 40% or more and less than 70%)	4 (Herbicidal ratio of 70% or more and less than 90%)	3 (Herbicidal ratio of 40% or more and less than 70%)	5 (Herbicidal ratio of 90% or more (almost completely withered))	5 (Herbicidal ratio of 90% or more (almost completely withered))	5 (Herbicidal ratio of 90% or more (almost completely withered))	3 (Herbicidal ratio of 40% or more and less than 70%)	4 (Herbicidal ratio of 70% or more and less than 90%)	5 (Herbicidal ratio of 90% or more (almost completely withered))	5 (Herbicidal ratio of 90% or more (almost completely withered))	5 (Herbicidal ratio of 90% or more (almost completely withered))	5 (Herbicidal ratio of 90% or more (almost completely withered))	3 (Herbicidal ratio of 40% or more and less than 70%)	4 (Herbicidal ratio of 70% or more and less than 90%)	5 (Herbicidal ratio of 90% or more (almost completely withered))	5 (Herbicidal ratio of 90% or more (almost completely withered))	3 (Herbicidal ratio of 40% or more and less than 70%)	R (Veronica persica) herbicidal effect grade (Veronica persica): 5 (Herbicidal ratio of 90% or more (almost completely withered))
